Article PMC8296985, “A Covalent Calmodulin Inhibitor as a Tool to Study Cellular Mechanisms of K-Ras-Driven Stemness” (Frontiers in Cell and Developmental Biology, 2021)
Like-named read-outs stand apart in the source and are kept apart here.

Tests used:
[1] = tested on: NCI-H358, MIA PaCa-2, MDA-MB-231 and A375 3D spheroids; test: 3D spheroid growth benchmarking, DSS3, alamarBlue; format: cell-based; conditions: spheroids grown 72 h then treated 72 h
Method: (§1) 3D spheroid formation assays were performed in 96-well low-attachment, suspension culture plates (cat. no. 655185, Cellstar, Greiner Bio-One) under serum-free condition. About 1,000 (MDA-MB-231, NCI-H358, and MIA PaCa-2) or 2,500 (Hs 578T) cells per well were seeded in 50 μl of either an RPMI medium (cat. no. 52400-025, Gibco, Thermo Fisher Scientific) (MDA-MB-231, A375, and NCI-H358) or DMEM (cat. no. 41965-039, Gibco, Thermo Fisher Scientific) (Hs 578T and MIA PaCa-2), containing 0.5% MethoCult (cat. no. SF H4636, Stemcell technologies), 1x B27 (cat. no. 17504044, Gibco, Thermo Fisher Scientific), 25 ng/ml EGF (cat. no. E9644, Sigma-Aldrich), and 25 ng/ml FGF (cat. no. RP-8628, Thermo Fisher Scientific). Cells were cultured for 3 days and then treated with compounds or vehicle control (DMSO 0.1% v/v in growth medium) for another 3 days. The cells were supplemented with a fresh growth medium on the third day together with the drug treatment. For knockdown experiments, cells were seeded in 12-well plates and treated with either 50 nM scrambled siRNA (cat. no. 1022076, QIAGEN) or indicated concentrations of siRNAs. Next day, cells were collected by trypsinization and re-plated into 96-well plates for 3D spheroid suspension culture.
(§2) Spheroid formation efficiency was analyzed by an alamarBlue assay reagent (cat. no. DAL1100, Thermo Fisher Scientific). A 10% final volume of the alamarBlue reagent was added to each well of the plate and incubated for 4 h at 37°C. Then the fluorescence intensity was measured using the FLUOstar OPTIMA plate reader (BMG Labtech, Germany) with an excitation wavelength of 560 ± 5 nm and an emission wavelength of 590 ± 5 nm.
(§3) To quantitatively profile the drug sensitivity with a more robust parameter than the IC50 or EC50 values, the drug sensitivity score (DSS) analysis was employed. DSS values are essentially normalized area under the curve (AUC) measures of dose-response inhibition data ([Yadav et al., 2014]). Drug response data files (in Excel) ready for online analysis were prepared according to the example file obtained from the DSS pipeline website, called Breeze^1 ([Potdar et al., 2020]). Either raw fluorescence intensity measurements or normalized % inhibition data (for BRET assay analysis) were uploaded.
(§4) DSS3 was employed to emphasize drugs that obtain their response area over a relatively wide dose window, as compared to drugs that show increased response only at the higher end of the concentration range. After logistic fitting of the dose-response inhibition data, the area under the curve (AUC) was determined as the exact solution. A 10% minimal activity threshold (t) was set. The maximum (Cmax) and minimum (Cmin) concentrations were used for screening of the inhibitors, with Cmax = x2 and x1 concentration with minimal activity t.

Hs 578T = test: 3D spheroid (tumorosphere) formation assay, low attachment, serum-free, alamarBlue; format: cell-based; conditions: for IC50: Homo sapiens
Method: as §1, §2, §3, §4

MDA-MB-231 = test: as above; format: cell-based; conditions: for IC50: Homo sapiens; for KRAS/HRAS mutant cell line DSS3 ratio: MDA-MB-231 vs Hs 578T 3D spheroid formation, 0.6–40 μM, numbers above bars Fig. 1A,B
Method: as §1, §2, §3, §4

calmodulin (CaM) = calmodulin (CaM) (Bos taurus, UniProt P62157); test: Fluorescence polarization assay, displacement of F-PMCA peptide from CaM; conditions: for kinact/KI: read-out: k2/Ki second-order rate constant
K-RasG12V = K-RasG12V nanoclustering-BRET assay in HEK293-EBNA cells; format: cell-based; conditions: mevastatin 10 μM; for K-Ras selective reduction of nanoclustering-BRET (K-Ras vs H-Ras): 24 h, calmidazolium 20 μM, OphA 2.5 μM, prostratin 10 μM, benzazulenones 20 μM
Method: (§5) BRET assays were essentially performed as described by others ([Lavoie et al., 2013]; [Bery et al., 2018]). About 100,00–150,000 HEK293-EBNA ([Meissner et al., 2001]) cells were seeded per well of a 12-well plate in 1 ml of DMEM containing 10% FBS and 2 mM L-glutamine and were grown for 24 h. Next day, Rluc8-tagged donor and GFP2-tagged acceptor constructs were transfected into cells using a jetPRIME transfection reagent (cat. no. 114-75, Polyplus). Each well was transfected with about 1 μg of plasmid DNA using 3 μl of the jetPRIME reagent. For BRET donor saturation titration experiments, the concentration of donor plasmid (25 ng) was kept constant, and the concentration of acceptor plasmid was increased from 0 to 500 ng for RasG12V BRET pairs and 0–1,000 ng for K-Ras/CaM BRET pairs. The empty pcDNA3.1(-) plasmid was used to top-up the total DNA load per transfection. After 24 h of transfection, cells were treated with compounds or vehicle control (DMSO 0.2% v/v in a growth medium) at the specified concentration for 24 h or the stipulated time period in case of the time-course experiments. The cells from one well of a 12-well plate were collected, washed, and re-plated in PBS (cat. no. 14190-094, Gibco, Thermo Fisher Scientific) on flat bottom, white 96-well plates (cat. no. 236108, Nunc, Thermo Fisher Scientific) as four technical replicates containing 90 μl of cell suspension per well. Then fluorescence intensity followed by BRET readings were carried out on a Clariostar (BMG Labtech) plate reader at 25°C. The fluorescence intensity (RFU) of GFP2 was measured with excitation at 405 ± 10 nm and emission 515 ± 10 nm; it is proportional to the acceptor concentration [acceptor]. BRET readings were taken well by well by adding 10 μl of 100 μM coelenterazine 400a (cat. no. C-320, GoldBio), the Rluc8 substrate to each well (final concentration of 10 μM) using the injector present in the plate reader. Luminescence emission intensities were simultaneously recorded at 410 ± 40 nm (RLU, proportional to [donor]) and 515 ± 15 nm (BRET signal).
(§6) The raw BRET ratio was calculated as the BRET signal measured at 515 nm divided by the emission signal measured at 410 nm (RLU). The BRET ratio was obtained by subtracting the raw BRET ratio by a background BRET signal measured for cells expressing only the donor ([Bacart et al., 2008]) as indicated in the formula below:
(§7) For BRET donor saturation titration experiments, the BRET ratio was plotted against the [acceptor]/[donor] ratio. Technical repeat data points were averaged, and data points from all biological repeats were collected into one graph for subsequent fitting. The BRET ratio vs. relative expression data were fitted using a binding saturation equation in the Prism (GraphPad) software to obtain BRETmax and BRET50 using the equation y=BRETmax×x/BRET50+x , where x is the relative expression and y is the BRET ratio. BRETmax represents the maximum saturation BRET signal and depends on the structural parameters (distance, orientation) of the BRET complex. BRET50 corresponds to the ratio of the acceptor construct over the donor construct required to attain 50% of the maximum BRET signal and is a measure of the effective relative affinity between the interacting BRET pair ([Marullo and Bouvier, 2007]).
When applying the DSS analysis to nanoclustering-BRET data, we used mevastatin (10 μM) to obtain the asymptote parameter (a) for the maximal inhibition effect, as it prevents the prenylation of Ras proteins, their plasma membrane trafficking, and therefore nanoclustering. Otherwise, normalized BRET ratio data were converted to % inhibition and then subsequently uploaded onto the Breeze site (see text footnote 1).

K-RasG12V/CaM = target: T1, K-RasG12V/CaM (Homo sapiens, UniProt P0DP23); test: Rluc8-K-RasG12V/GFP2-CaM interaction BRET in HEK293-EBNA cells; format: cell-based; conditions: calmidazolium 20 μM, prostratin 20 μM, OphA 5 μM
T1 construct: expressed in transfected cells; host or cells: HEK293-EBNA
Method: as §5, §6, §7

[2] = 72 h, Hs 578T (H-RasG12D) 3D tumorosphere, 3 days treatment, read-out: IC50
[3] = Hs 578T 3D tumorosphere, log scale
[4] = 72 h, MDA-MB-231 (K-RasG13D) 3D tumorosphere, 3 days treatment, read-out: IC50
[5] = MDA-MB-231 3D tumorosphere, log scale
[6] = Hs 578T 3D tumorosphere, log scale, read-out: logIC50 ± SD (converted)
[7] = MDA-MB-231 3D tumorosphere, log scale, read-out: logIC50 ± SD (converted)

Structure (SMILES)	IC50 (Hs 578T; [2])	IC50 (MDA-MB-231; [4])	Kd (calmodulin (CaM))	IC50 (Hs 578T; [6])	logIC50 ± SD (Hs 578T; [3])	logIC50 ± SD (MDA-MB-231; [5])	KRAS/HRAS mutant cell line DSS3 ratio (MDA-MB-231)	also measured
CCCS(=O)(=O)Nc1ccc(F)c(C(=O)c2c[nH]c3ncc(-c4ccc(Cl)cc4)cc23)c1F [vemurafenib]	–	–	–	–	–	–	–	effect on 3D spheroid growth [1]: selectively and potently abolished the growth
CC(=O)O[C@@]12C[C@@H](C)[C@@]3(O)[C@@H](C=C(CO)C[C@]4(O)C(=O)C(C)=C[C@@H]34)[C@@H]1C2(C)C [prostratin]	–	–	–	–	–	–	–	K-Ras selective reduction of nanoclustering-BRET (K-Ras vs H-Ras) (K-RasG12V): 1.5 fold; effect on Rluc8-K-RasG12V/GFP2-CaM BRET signal, single concentration (K-RasG12V/CaM): did not have an effect; effect on 3D spheroid growth [1]: almost no effect on cell growth
C=CC(=O)N1CCN(c2nc(=O)n(-c3c(C)ccnc3C(C)C)c3nc(-c4c(O)cccc4F)c(F)cc23)[C@@H](C)C1 [AMG-510]	–	–	–	–	–	–	–	effect on 3D spheroid growth [1]: selectively and potently abolished the growth
CC[C@H](C)C(=O)O[C@H]1CCC=C2C=C[C@H](C)[C@H](CC[C@@H]3C[C@@H](O)CC(=O)O3)[C@H]21 [mevastatin]	–	–	–	–	–	–	–	time-dependent change of K-RasG12V nanoclustering-BRET signal (K-RasG12V; 2-h treatment timeframe, OphA 10 μM): did not cause any reduction in the BRET signal; K-Ras selective reduction of nanoclustering-BRET (K-Ras vs H-Ras) (K-RasG12V): fairly indiscriminately
CC(C)c1ccc2cc(C(F)(F)F)c(=O)c3c(N4CCCC4)c(C=O)c(c1)c23 [Compound 4]	> 40 µM	> 40 µM	39 µM	–	Inconclusive	Inconclusive	2.0	–
CC(C)c1ccc2cc(C(F)(F)F)c(=O)c3c(NCCO)c(C=O)c(c1)c23 [Compound 6]	> 40 µM	> 40 µM	31 µM	–	Inconclusive	Inconclusive	115.5	–

The next lines start with results.

IC50 (Hs 578T; [2])	IC50 (MDA-MB-231; [4])	Kd (calmodulin (CaM))	IC50 (Hs 578T; [6])	Structure (SMILES)	logIC50 ± SD (Hs 578T; [3])	logIC50 ± SD (MDA-MB-231; [5])	KRAS/HRAS mutant cell line DSS3 ratio (MDA-MB-231)	also measured
> 40 µM	> 40 µM	62 µM	–	Cc1c(NCCO)c2c(=O)c(C(F)(F)F)cc3ccc(C(C)C)cc1c32 [Compound 13]	Inconclusive	Inconclusive	14.5	–
8.5 µM	> 40 µM	6.1 µM	7.94 µM	Cc1c(N2CCC2)c2c(=O)c(C(F)(F)F)cc3ccc(C(C)C)cc1c32 [Compound 12]	–	Inconclusive	0.01	–
> 40 µM	> 40 µM	21.4 µM	–	Cc1c(N)c2c(=O)c(C(F)(F)F)cc3ccc(C(C)C)cc1c32 [Compound 14]	Inconclusive	Inconclusive	4.7	–
17.4 µM	19.6 µM	1.44 µM	17.4 µM	Cc1c(N2CCOCC2)c2c(=O)c(C(F)(F)F)cc3ccc(C(C)C)cc1c32 [Compound 9]	–	–	1.3	IC50 (MDA-MB-231; [7]): 19.5 µM; Ki (calmodulin (CaM)): 229 µM; kinact/KI (calmodulin (CaM)): 1.67 M⁻¹ s⁻¹
5.2 µM	15.4 µM	0.81 µM	5.89 µM	Cc1c(N2CCCC2)c2c(=O)c(C(F)(F)F)cc3ccc(C(C)C)cc1c32 [Compound 11, 2-pyrrolidinylbenzazulen-3-one]	–	–	1.2	IC50 (MDA-MB-231; [7]): 15.5 µM; Ki (calmodulin (CaM)): 78 µM; kinact/KI (calmodulin (CaM)): 1.11 M⁻¹ s⁻¹
> 40 µM	> 40 µM	45 µM	–	CC(C)c1ccc2cc(C(F)(F)F)c(=O)c3c(N)c(C=O)c(c1)c23 [Compound 7]	Inconclusive	Inconclusive	2.2	–
23.1 µM	> 40 µM	–	22.9 µM	Cc1c(N2CCN(C)CC2)c2c(=O)c(C(F)(F)F)cc3ccc(C(C)C)cc1c32 [Compound 10]	–	Inconclusive	0.03	Kd ± SD (calmodulin (CaM); CaM-binding affinity after 24-h incubation, F-PMCA probe): Inconclusive
13.2 µM	34.5 µM	29 µM	13.2 µM	CC(C)c1ccc2cc(C(F)(F)F)c(=O)c3c(N4CCC4)c(C=O)c(c1)c23 [Compound 5]	–	–	0.7	IC50 (MDA-MB-231; [7]): 34.7 µM
24.9 µM	22.8 µM	0.23 µM	24.5 µM	CC(C)c1ccc2cc(C(F)(F)F)c(=O)c3c(N4CCOCC4)c(C=O)c(c1)c23 [Compound 2]	–	–	3.3	IC50 (MDA-MB-231; [7]): 22.9 µM; Ki (calmodulin (CaM)): 13 µM; affinity for CaM relative to OphA (calmodulin (CaM); after 24-h incubation, higher affinity than OphA): 15 fold; kinact/KI (calmodulin (CaM)): 25.8 M⁻¹ s⁻¹
